Key:
Assay in all cases: fluorescence titration
[1] = test system: dsDNA (DNA, duplex) GGGTTACTACGAACTGG/CCAGTTCGTAGTAACCC; settings: 153 mM Na+, 2.7 mM K+, 2.5 mM Mg2+, pH 7.4, 25 °C, dye 3 μM, apparent
[2] = test system: 18Ras (RNA, G4) GGGAGGGGCGGGUCUGGG; settings: 2.5 mM Mg2+, pH 7.4, 25 °C, dye 3 μM, apparent
[3] = test system: 18Ras (RNA, G4) GGGAGGGGCGGGUCUGGG; settings: 140 mM K+, 10 mM Na+, 2.5 mM Mg2+; PBS140KM (phosphate) pH 7.4, 25 °C; 3 μM dye; apparent
[4] = test system: 27Myc (DNA, G4) TGGGGAGGGTGGGGAGGGTGGGGAAGG; settings: 140 mM K+, 10 mM Na+, 2.5 mM Mg2+; PBS140KM (phosphate) pH 7.4, 25 °C; 3 μM dye; apparent
[5] = test system: 26Tel (DNA, G4) TTAGGGTTAGGGTTAGGGTTAGGGTT; settings: 153 mM Na+, 2.7 mM K+, 2.5 mM Mg2+, pH 7.4, 25 °C, dye 3 μM, apparent
[6] = test system: 20Src (DNA, G4) GGGCGGCGGGCTGGGCGGGG; settings: 2.5 mM Mg2+, pH 7.4, 25 °C, dye 3 μM, oligonucleotide to 15 μM, apparent, n.d., assumed
[7] = test system: 26Tel (DNA, G4) TTAGGGTTAGGGTTAGGGTTAGGGTT; settings: 2.5 mM Mg2+, 3 μM dye, apparent
[8] = test system: 27Myc (DNA, G4) TGGGGAGGGTGGGGAGGGTGGGGAAGG; settings: 153 mM Na+, 2.7 mM K+, 2.5 mM Mg2+, pH 7.4, 25 °C, dye 3 μM, apparent
[9] = test system: 22AG (DNA, G4) AGGGTTAGGGTTAGGGTTAGGG; settings: 2.5 mM Mg2+, 3 μM dye, apparent
[10] = test system: 22Kit (DNA, G4) AGGGAGGGCGCTGGGAGGAGGG; settings: 153 mM Na+, 2.7 mM K+, 2.5 mM Mg2+, pH 7.4, 25 °C, dye 3 μM, apparent
[11] = test system: 22Kit (DNA, G4) AGGGAGGGCGCTGGGAGGAGGG; settings: 140 mM K+, 10 mM Na+, 2.5 mM Mg2+; PBS140KM (phosphate) pH 7.4, 25 °C; 3 μM dye; apparent
[12] = test system: 22AG (DNA, G4) AGGGTTAGGGTTAGGGTTAGGG; settings: 2.5 mM Mg2+, pH 7.4, 25 °C, dye 3 μM, apparent
[13] = test system: 20Src (DNA, G4) GGGCGGCGGGCTGGGCGGGG; settings: 2.5 mM Mg2+, 3 μM dye, apparent
[14] = test system: dsDNA (DNA, duplex) GGGTTACTACGAACTGG/CCAGTTCGTAGTAACCC; settings: 140 mM K+, 10 mM Na+, 2.5 mM Mg2+; PBS140KM (phosphate) pH 7.4, 25 °C; 3 μM dye; apparent
[15] = PBS153NM, oligonucleotide to 15 μM, n.d., assumed
[16] = 153 mM Na+, 2.7 mM K+, PBS153NM (phosphate)
[17] = 153 mM Na+, 2.7 mM K+, PBS153NM
[18] = 140 mM K+, 10 mM Na+, PBS140KM (phosphate) pH 7.4, 25 °C
[19] = 140 mM K+, 10 mM Na+, PBS140KM, oligonucleotide to 15 μM, n.d., assumed
[20] = 153 mM Na+, 2.7 mM K+, PBS153NM, oligonucleotide to 15 μM, n.d., assumed
[21] = 153 mM Na+, 2.7 mM K+, PBS153NM (phosphate) pH 7.4, 25 °C

With `Cc1ccc2c(c1)sc(-c1ccc(N(C)C)cc1)[n+]2C` the Kd [1, 15] was greater than 40 µM, the Kd [2, 16] was 15.3 ± 1.6 µM and the Kd [3] was 19.0 ± 2.9 µM. It also gave a Kd [4] of 6.9 ± 0.8 µM, a Kd ([5]; PBS153NM (phosphate)) of 29.5 ± 5.6 µM and a Kd ([6]; 140 mM K+, 10 mM Na+, PBS140KM) greater than 40 µM. It also gave a Kd [6, 17] greater than 40 µM, a Kd [7, 18] of 4.0 ± 0.4 µM and a Kd ([8]; PBS153NM (phosphate)) of 13.5 ± 5.1 µM. The Kd [9, 18] was 5.0 ± 0.5 µM, the Kd ([10]; PBS153NM (phosphate)) was 4.8 ± 0.8 µM and the Kd [11] was 9.9 ± 1.2 µM.
For `Cc1ccc2c(c1)sc(-c1ccc(N(C)C)cc1)[n+]2CCN`, the Kd [1, 15] was greater than 40 µM, the Kd [2, 19] was greater than 40 µM and the Kd [2, 20] was greater than 40 µM. For the same molecule, the Kd [5, 15] was greater than 40 µM, the Kd ([6]; 140 mM K+, 10 mM Na+, PBS140KM) was greater than 40 µM and the Kd [6, 17] was greater than 40 µM. For the same molecule, the Kd [7, 18] was 9.7 ± 5.5 µM, the Kd [8, 15] was greater than 40 µM and the Kd [12, 19] was greater than 40 µM. The Kd [12, 16] was 23.6 ± 9.1 µM, the Kd [10, 15] was greater than 40 µM and the Kd [11] was 8.9 ± 3.5 µM.
`Cc1ccc2c(c1)sc(-c1ccc(N(C)C)cc1)[n+]2CCNC(=O)COCC(=O)NCCOCCOCCOCCOCCOCCOCCOCCOCCOCCOCCOCCN` was tested, and the Kd [1, 15] was greater than 40 µM, the Kd [13, 18] was 20.2 ± 2.3 µM and the Kd [2, 16] was 16.3 ± 1.8 µM. For the same molecule, the Kd [3] was 15.3 ± 1.9 µM, the Kd [4] was 13.4 ± 0.8 µM and the Kd [5, 15] was greater than 40 µM. For the same molecule, the Kd [6, 17] was greater than 40 µM, the Kd [7, 18] was 23.9 ± 3.1 µM and the Kd ([8]; PBS153NM (phosphate)) was 29.1 ± 2.5 µM. The Kd [12, 19] was greater than 40 µM, the Kd [12, 16] was 20.3 ± 9.9 µM and the Kd [10, 15] was greater than 40 µM. For the same molecule, the Kd [11] was 36.6 ± 4.4 µM.
`Cc1ccc2c(c1)sc(-c1ccc(N(C)C)cc1)[n+]2CCNC(=O)COCCOCCN` showed a Kd [1, 15] greater than 40 µM, a Kd [13, 18] of 38.6 ± 5.9 µM and a Kd [2, 16] of 15.5 ± 1.7 µM. For the same molecule, the Kd [3] was 11.8 ± 0.6 µM, the Kd [4] was 8.7 ± 0.7 µM and the Kd ([5]; PBS153NM (phosphate)) was 34.3 ± 4.0 µM. For the same molecule, the Kd [6, 17] was greater than 40 µM, the Kd [7, 18] was 5.3 ± 0.4 µM and the Kd ([8]; PBS153NM (phosphate)) was 10.8 ± 1.3 µM. The Kd [12, 20] was greater than 40 µM, the Kd [9, 18] was 11.8 ± 1.4 µM and the Kd [10, 15] was greater than 40 µM. It also gave a Kd [11] of 20.5 ± 1.4 µM.
Work on `Cc1ccc2c(c1)sc(-c1ccc(N(C)C)cc1)[n+]2CCNC(=O)NCCCNCCCCNCCCN` yielded a Kd ([1]; PBS153NM (phosphate)) of 9.4 ± 1.0 µM, a Kd [13, 18] of 18.8 ± 2.4 µM and a Kd [13, 21] of 4.1 ± 0.5 µM. For the same molecule, the Kd [2, 16] was 14.7 ± 3.2 µM, the Kd [14] was 16.0 ± 1.0 µM and the Kd [3] was 12.8 ± 1.9 µM. For the same molecule, the Kd [4] was 6.8 ± 0.9 µM, the Kd [7, 18] was 2.4 ± 0.4 µM and the Kd [7, 21] was 4.6 ± 0.3 µM. For the same molecule, the Kd ([8]; PBS153NM (phosphate)) was 5.3 ± 0.8 µM, the Kd [9, 18] was 5.4 ± 1.0 µM and the Kd [9, 21] was 8.2 ± 0.8 µM. It also gave a Kd ([10]; PBS153NM (phosphate)) of 7.4 ± 3.9 µM and a Kd [11] of 6.8 ± 0.6 µM.
With `Cc1ccc2c(c1)sc(-c1ccc(N(C)C)cc1)[n+]2CCO` the Kd [1, 15] was greater than 40 µM, the Kd [2, 16] was 28.1 ± 4.0 µM and the Kd [3] was 25.0 ± 3.1 µM. The Kd [4] was 19.9 ± 0.9 µM, the Kd [5, 15] was greater than 40 µM and the Kd ([6]; 140 mM K+, 10 mM Na+, PBS140KM) was greater than 40 µM. It also gave a Kd [6, 17] greater than 40 µM, a Kd [7, 18] of 11.1 ± 1.5 µM and a Kd ([8]; PBS153NM (phosphate)) of 14.1 ± 1.5 µM. The Kd [12, 20] was greater than 40 µM, the Kd [9, 18] was 20.1 ± 1.5 µM and the Kd ([10]; PBS153NM (phosphate)) was 12.3 ± 1.8 µM. It also gave a Kd [11] of 34.9 ± 6.6 µM.

From PMC7663003 (2020)
